Data on 1 compound can be found in patent US9930892B2, “Molecules having pesticidal utility, and intermediates, compositions, and processes, related thereto” (Dow AgroSciences LLC, priority 2016, dated 2018).

Format in all cases: in vivo
Series [1] deals with Yellow Fever Mosquito (Aedes aegypti). The conditions noted are these: 4000 ppm master plate solution diluted, about 1 day-old larvae, scored on mortality after 3 days. As for the experimental part: Master plates containing 400 μg of a molecule dissolved in 100 μL of dimethyl sulfoxide (DMSO) (equivalent to a 4000 ppm solution) are used. A master plate of assembled molecules contains 15 μL per well. To this plate, 135 μL of a 90:10 water:acetone mixture is added to each well. A robot (Biomek® NXP Laboratory Automation Workstation) is programmed to dispense 15 μL aspirations from the master plate into an empty 96-well shallow plate (“daughter” plate). There are 6 reps (“daughter” plates) created per master. The created daughter plates are then immediately infested with YFM larvae.
The day before plates are to be treated, mosquito eggs are placed in Millipore water containing liver powder to begin hatching (4 g. into 400 mL). After the daughter plates are created using the robot, they are infested with 220 μL of the liver powder/larval mosquito mixture (about 1 day-old larvae). After plates are infested with mosquito larvae, a non-evaporative lid is used to cover the plate to reduce drying. Plates are held at room temperature for 3 days prior to grading. After 3 days, each well is observed and scored based on mortality. The results are indicated in the table entitled “Table ABC: Biological Results” (See Table Section).

In series [2] the test system is Cabbage Looper (Trichoplusia ni). The series can be described thus: Bioassay on Cabbage Looper (CL), 128-well diet tray assay. The conditions noted are these: 50 μg/cm^2 on artificial diet, second instar larvae, five to seven days, 25° C. As for the experimental part: Bioassays on CL were conducted using a 128-well diet tray assay. One to five second instar CL larvae were placed in each well (3 mL) of the diet tray that had been previously filled with 1 mL of artificial diet to which 50 μg/cm^2 of the test molecule (dissolved in 50 μL of 90:10 acetone-water mixture) had been applied (to each of eight wells) and then allowed to dry. Trays were covered with a clear self-adhesive cover and held at 25° C., 14:10 light-dark for five to seven days. Percent mortality was recorded for the larvae in each well; activity in the eight wells was then averaged. The results are indicated in the table entitled “Table ABC: Biological Results” (See Table Section).
(§1) Bioassays on BAW and CL were conducted according to the procedures outlined in Example A: Bioassays on Beet Armyworm (“BAW”) and Cabbage Looper (“CL”) using the indicated concentrations.

The subject of series [3] is Green Peach Aphid (Myzus persicae). The series can be described thus: Bioassay on Green Peach Aphid (GPA), foliar spray on cabbage seedlings. The conditions noted are these: 200 ppm spray on cabbage seedlings, graded after three days, Abbott corrected % control. As for the experimental part:
Cabbage seedlings grown in 3-inch pots, with 2-3 small (3-5 cm) true leaves, were used as test substrate. The seedlings were infested with 20-50 GPA (wingless adult and nymph stages) one day prior to chemical application. Four pots with individual seedlings were used for each treatment. Test molecules (2 mg) were dissolved in 2 mL of acetone/methanol (1:1) solvent, forming stock solutions of 1000 ppm test molecule. The stock solutions were diluted 5× with 0.025% Tween 20 in water to obtain the solution at 200 ppm test molecule. A hand-held aspirator-type sprayer was used for spraying a solution to both sides of […] leaves until runoff. Reference plants (solvent check) were sprayed with the diluent only containing 20% by volume of acetone/methanol (1:1) solvent. Treated plants were held in a holding room for three days at approximately 25° C. and ambient relative humidity (RH) prior to grading. Evaluation was conducted by counting the number of live aphids per plant under a microscope. Percent Control was measured by using Abbott's correction formula (W. S. Abbott, “A Method of Computing the Effectiveness of an Insecticide” J. Econ. Entomol. 18 (1925), pp. 265-267) as follows. Corrected % Control=100*(X−Y)/X • where • X=No. of live aphids on solvent check plants and • Y=No. of live aphids on treated plants

The subject of series [4] is Beet Armyworm (Spodoptera exigua). The series can be described thus: Bioassay on Beet Armyworm (BAW), 128-well diet tray assay. The conditions noted are these: 50 μg/cm^2 on artificial diet, second instar larvae, five to seven days, 25° C. As for the experimental part: Bioassays on BAW were conducted using a 128-well diet tray assay. One to five second instar BAW larvae were placed in each well (3 mL) of the diet tray that had been previously filled with 1 mL of artificial diet to which 50 μg/cm^2 of the test molecule (dissolved in 50 μL of 90:10 acetone-water mixture) had been applied (to each of eight wells) and then allowed to dry. Trays were covered with a clear self-adhesive cover and held at 25° C., 14:10 light-dark for five to seven days. Percent mortality was recorded for the larvae in each well; activity in the eight wells was then averaged. The results are indicated in the table entitled “Table ABC: Biological Results” (See Table Section).
as §1

Turning to `CN(NC(=O)c1ccc(/C(F)=C/C(c2ccc(Cl)c(Br)c2)C(F)(F)F)cc1C(F)(F)F)C(=O)NCC(F)(F)F` (stereo not shown) [PF8], the “YFM % Control (or Mortality) rating” value in series [1] is “A (80-100)”. The “CL % Control (or Mortality) rating” value in series [2] is “A (50-100)”. The “GPA % Control (or Mortality) rating” value in series [3] was “B (More than 0-Less than 80)”. Besides, the “BAW % Control (or Mortality) rating” value in series [4] is listed as “A (50-100)”.
